The NIST ThermoML archive (doi:10.1016/j.jct.2017.08.004)

Assay: molar heat capacity at constant pressure
Conditions: 101.33 kPa, Small sample (50 mg) DSC

O[C@H]1[C@H](O)[C@@H](O)[C@H](O)[C@@H](O)[C@H]1O [cis-1,2,3,5-trans-4,6-cyclohexanehexol]
Conditions	molar heat capacity at constant pressure [J/K/mol]
315.15 K, Crystal	232.92
316.15 K, Crystal	233.85
317.15 K, Crystal	235
318.15 K, Crystal	235.92
319.15 K, Crystal	236.78
320 K, Crystal	237.36
320.15 K, Crystal	237.59
321.15 K, Crystal	238.68
322.15 K, Crystal	239.43
323.15 K, Crystal	240.32
324.15 K, Crystal	241.22
325 K, Crystal	241.8
325.15 K, Crystal	242.06
326.15 K, Crystal	242.94
327.15 K, Crystal	243.8
328.15 K, Crystal	244.59
329.15 K, Crystal	245.47
330 K, Crystal	246.17
330.15 K, Crystal	246.24
331.15 K, Crystal	247.08
332.15 K, Crystal	247.89
333.15 K, Crystal	248.82
334.15 K, Crystal	249.61
335 K, Crystal	250.49
335.15 K, Crystal	250.35
336.15 K, Crystal	251.33
337.15 K, Crystal	251.96
338.15 K, Crystal	252.7
339.15 K, Crystal	253.75
340 K, Crystal	254.75
340.15 K, Crystal	254.49
341.15 K, Crystal	255.37
342.15 K, Crystal	256.24
343.15 K, Crystal	257.08
344.15 K, Crystal	258
345 K, Crystal	258.97
345.15 K, Crystal	258.77
346.15 K, Crystal	259.66
347.15 K, Crystal	260.52
348.15 K, Crystal	261.32
349.15 K, Crystal	262.12
350 K, Crystal	263.15
350.15 K, Crystal	262.98
351.15 K, Crystal	263.82
352.15 K, Crystal	264.56
353.15 K, Crystal	265.46
354.15 K, Crystal	266.43
355 K, Crystal	267.28
355.15 K, Crystal	268.62
356.15 K, Crystal	269.08
357.15 K, Crystal	269.64
358.15 K, Crystal	270.31
359.15 K, Crystal	271.05
360 K, Crystal	271.38
360.15 K, Crystal	271.91
361.15 K, Crystal	272.57
362.15 K, Crystal	273.45
363.15 K, Crystal	274.41
364.15 K, Crystal	275.15
365 K, Crystal	275.43
365.15 K, Crystal	275.9
366.15 K, Crystal	276.72
367.15 K, Crystal	277.6
368.15 K, Crystal	278.26
369.15 K, Crystal	279.12
370 K, Crystal	279.44
370.15 K, Crystal	280
371.15 K, Crystal	280.66
372.15 K, Crystal	281.41
373.15 K, Crystal	282.03
374.15 K, Crystal	282.8
375 K, Crystal	283.41
375.15 K, Crystal	283.66
376.15 K, Crystal	284.41
377.15 K, Crystal	285.16
378.15 K, Crystal	286.02
379.15 K, Crystal	286.77
380 K, Crystal	287.33
380.15 K, Crystal	287.5
381.15 K, Crystal	288.2
382.15 K, Crystal	289.07
383.15 K, Crystal	289.93
384.15 K, Crystal	290.58
385 K, Crystal	291.21
385.15 K, Crystal	291.5
386.15 K, Crystal	292.25
387.15 K, Crystal	292.92
388.15 K, Crystal	293.5
389.15 K, Crystal	294.35
390 K, Crystal	295.04
390.15 K, Crystal	295.24
391.15 K, Crystal	295.7
392.15 K, Crystal	296.49
393.15 K, Crystal	297.22
394.15 K, Crystal	297.96
395 K, Crystal	298.83
395.15 K, Crystal	298.67
396.15 K, Crystal	299.31
397.15 K, Crystal	300.06
398.15 K, Crystal	300.77
399.15 K, Crystal	301.51
400 K, Crystal	302.58
400.15 K, Crystal	302.31
401.15 K, Crystal	303.15
402.15 K, Crystal	303.73
403.15 K, Crystal	304.44
404.15 K, Crystal	305.17
405 K, Crystal	306.28
405.15 K, Crystal	306.03
406.15 K, Crystal	306.79
407.15 K, Crystal	307.48
408.15 K, Crystal	308.4
409.15 K, Crystal	309.1
410 K, Crystal	309.94
410.15 K, Crystal	309.8
411.15 K, Crystal	310.58
412.15 K, Crystal	311.34
413.15 K, Crystal	311.98
414.15 K, Crystal	312.89
415 K, Crystal	313.58
415.15 K, Crystal	313.72
416.15 K, Crystal	314.29
417.15 K, Crystal	315.14
418.15 K, Crystal	315.93
419.15 K, Crystal	316.51
420 K, Crystal	317.18
420.15 K, Crystal	317.13
421.15 K, Crystal	317.97
422.15 K, Crystal	318.68
423.15 K, Crystal	319.32
424.15 K, Crystal	320.07
425 K, Crystal	320.78
425.15 K, Crystal	320.77
426.15 K, Crystal	321.54
427.15 K, Crystal	322.27
428.15 K, Crystal	322.94
429.15 K, Crystal	323.6
430 K, Crystal	324.37
430.15 K, Crystal	324.79
431.15 K, Crystal	325.38
432.15 K, Crystal	325.96
433.15 K, Crystal	326.58
434.15 K, Crystal	327.17
435 K, Crystal	327.98
435.15 K, Crystal	328.13
436.15 K, Crystal	328.94
437.15 K, Crystal	329.55
438.15 K, Crystal	330.45
439.15 K, Crystal	331.25
440 K, Crystal	331.62
440.15 K, Crystal	332.08
441.15 K, Crystal	332.75
442.15 K, Crystal	333.52
443.15 K, Crystal	334.28
444.15 K, Crystal	334.91
445 K, Crystal	335.31
445.15 K, Crystal	335.69
446.15 K, Crystal	336.45
447.15 K, Crystal	337.11
448.15 K, Crystal	337.97
449.15 K, Crystal	338.86
450 K, Crystal	339.09
450.15 K, Crystal	339.61
451.15 K, Crystal	340.28
452.15 K, Crystal	340.91
453.15 K, Crystal	341.76
454.15 K, Crystal	342.6
455 K, Crystal	342.97
455.15 K, Crystal	343.62
456.15 K, Crystal	344.29
457.15 K, Crystal	345.24
458.15 K, Crystal	346.14
459.15 K, Crystal	346.94
460 K, Crystal	346.99
460.15 K, Crystal	347.73
461.15 K, Crystal	348.37
462.15 K, Crystal	349.07
463.15 K, Crystal	349.91
464.15 K, Crystal	350.64
465 K, Crystal	351.2
465.15 K, Crystal	351.55
466.15 K, Crystal	352.42
467.15 K, Crystal	353.08
468.15 K, Crystal	353.97
469.15 K, Crystal	354.86
470 K, Crystal	355.62
470.15 K, Crystal	355.7
471.15 K, Crystal	356.6
472.15 K, Crystal	357.44
473.15 K, Crystal	358.19
474.15 K, Crystal	359.01
475 K, Crystal	360.31
475.15 K, Crystal	359.91
476.15 K, Crystal	360.87
477.15 K, Crystal	361.75
478.15 K, Crystal	362.53
479.15 K, Crystal	363.44
480 K, Crystal	365.32
480.15 K, Crystal	364.51
481.15 K, Crystal	365.73
482.15 K, Crystal	366.73
485 K, Crystal	370.71
513.05 K, Liquid	508.49
513.15 K, Liquid	508.52
514.15 K, Liquid	508.4
515 K, Liquid	506.99
515.15 K, Liquid	507.66
516.15 K, Liquid	505.87
517.15 K, Liquid	506.07
518.15 K, Liquid	506.35
519.15 K, Liquid	506.73
520 K, Liquid	507.22
520.15 K, Liquid	506.91
521.15 K, Liquid	507.17
522.15 K, Liquid	507.28
523.15 K, Liquid	507.22
524.15 K, Liquid	507.46
525 K, Liquid	507.46
525.15 K, Liquid	506.85
526.15 K, Liquid	507.2
527.15 K, Liquid	506.47
528.15 K, Liquid	505.89
529.15 K, Liquid	506.19
530 K, Liquid	507.69
530.15 K, Liquid	507.15
531.15 K, Liquid	507.89
532.15 K, Liquid	508.08
533.15 K, Liquid	508.54
534.15 K, Liquid	508.66
535 K, Liquid	507.93
535.15 K, Liquid	508.27
536.15 K, Liquid	508.3
537.15 K, Liquid	508.67
538.15 K, Liquid	508.45
539.15 K, Liquid	508.21
540 K, Liquid	508.16
540.15 K, Liquid	508.39
541.15 K, Liquid	508.54
542.15 K, Liquid	508.33
543.15 K, Liquid	508.45
